Data published in patent US6337333B1, “Method of treating autoimmune disease with fludarabine-5′-monophosphate” (priority 1992, dated 2002).

Tests used:
[1] = system: human T-lymphoblastoid cell lines; conditions: cited from earlier work
B lymphocytes [2] = conditions: SAC + rIL-2, drug present 0-72 hr, 72-144 hr or continuously; results not shown
Description: The B lymphocytes are cultured with SAC +rIL-2 under the following conditions:
1. 0 to 72 hr + drug (0.1-0.5 […]), wash, continue culture for additional 72 hr
2. 0 to 72 hr, wash, add drug for additional 72 hr culture
3. No drug for 6 days (wash at 3 days)
4. Drug in continuous culture for 6 days
At the end of the culture period, the supernatants are assayed for IgM, IgG, and IgM-RF.

B cell subtypes = conditions: 0.1-1.0 μg/ml for 48 hr, then 5 to 10 days SAC/rIL-2; data not shown
Description: B lymphocytes are incubated with drug (0.1-1.0 μg/ml) for 48 hr, followed by 5 to 10 days culture with SAC/rIL-2. The supernatant is then assayed at 5 and 10 days for IgM, IgG, and IgM-RF. Analyze the cells by flowcytometry at day 5 for CD20, CD20/CD5, CD5/sIgM, CD5/IgG, CD20/5/sIgM, and CD20/5 sIgG.

B lymphocytes [3] = assay: B lymphocyte proliferative response to mitogen after 18 hr drug pretreatment (3H-thymidine); format: cell-based, human; conditions: 18 hr pretreatment; for % Suppression: B lymphocytes
Description: (§1) In FIG. 1, freshly isolated PBMC were enriched for T and B lymphocytes using Nylon Wool (see Materials and Methods, Example A). The enriched lymphocyte subpopulations were then incubated for 18 hrs at 37° C. with various concentrations of drug. At the end of the pretreatment period, the cell samples were washed, adjusted to 2×10^5 viable cells/ml, and cultured at 1×10^4/well in flat (B cells) or round (T cells) bottomed 96 well microtiter plates in […]. The T cells were incubated for 3 days with PHA-P ([…]) or Con A (5 μg/ml) and the B cells were cultured for 6 days with either PWM (2 μg/ml) or SAC ({fraction (1/60,000)}). 1 μCi of ^3H-thymidine was added per well during the last 18 hr of culture. The wells were then harvested onto glass fiber filters, and counted in 7 ml of Cytoscint (ICN) on the LKB 1219 Rackbeta scintillation counter. The results are expressed as the mean cpm of triplicate wells.
(§2) Peripheral blood mononuclear cells obtained from normal donors as packed leukocyte preparations were enriched for T and B lymphocytes and pretreated with drug for 18 hrs prior to mitogen stimulation.
(§3) Peripheral blood mononuclear cells enriched for either T or B lymphocytes were incubated for 18 hrs in complete S-10 medium at 37° C. in 12×75 mm culture tubes at 5×10^5 cells/ml. The cells were then washed in S-10 and cultured in triplicate for either 3 (T lymphocytes) or 6 (B lymphocytes) days at 2.5×10^4/well in round bottom 96-well microtiter plates in S-10 medium at 37° C. and a 5% CO2 humidified atmosphere. The wells were pulsed with 1 μCi 3H-thymidine for the last 18 hr of culture, harvested onto glass fiber filters, and counted with 7 ml Cytoscint with a LKB Rackbeta scintillation counter. The results are reported as “percent Suppression”:
(§4) % Suppression={1−(mean cpm exp./mean cpm stim control)}×100

[4] = system: collagen-induced arthritis; conditions: 1 and 10 mg/kg/day injected days 0-10 or days 10-20
Description: The study involves two treatment schedules (47). In Schedule I, FLP is injected on a daily basis on days 0-10 at doses of 1 and 10 mg/kg/day. In Schedule II, FLP is injected at days 10-20 at 1 and 10 mg/kg/day. […] Clinical, histological, EIA, and flowcytometry are employed to follow the progress of the disease.

T lymphocytes = assay: T lymphocyte proliferative response to mitogen after 18 hr drug pretreatment (3H-thymidine); format: cell-based, human; conditions: 18 hr pretreatment; for % Suppression: T lymphocytes
Description: as §1, §2, §3, §4

[5] = B-CLL patients; cited from earlier work
[6] = system: CD20 positive B lymphocytes; conditions: 48 hr culture with and without PWM, dose range 0.1-5.0 μg/ml, FIG. 3
Description: In FIG. 3, freshly isolated PBMC enriched for CD20 positive B lymphocytes (50% CD19, 45% CD20, 10% CD20/CD5 and 30% CD3/CD5) were cultured over 48 hr with various concentrations of FLP with and without PWM (5 μg/ml). The cells were washed once in C-BSS, and resuspended in 0.5 ml C-BCC with 5 μl of PI. Percent viable CD20 positive cells were determined by analysis on a FACScan using the LYSIS II software. Results are expressed as percent of total gated viable cells.
For viability determination of unfixed samples, 5 μl of a 500 mg/ml stock—solution of propidium iodide (PI) was added to the samples (0.5 ml)—immediately before acquisition.
A dose range of drug between 0.1-5.0 μg/ml was performed on PBMC enriched for B lymphocytes cultured for 48 hr with and without the mitogen PWM (FIG. 3). At the end of the culture period, the cells were washed, stained, and analyzed by flowcytometry for viable CD20 positive B lymphocytes.

For Nc1nc(Cl)nc2c1ncn2[C@H]1C[C@H](O)[C@@H](CO)O1 [2CDA, 2-chlorodeoxyadenosine], the “levels giving growth inhibition” value [1] is listed as “nanomolar levels”.
In the case of Nc1nc(F)nc2c1ncn2[C@@H]1O[C@H](COP(=O)(O)O)[C@@H](O)[C@@H]1O [FLP, fludarabine-5′-monophosphate], the “part of the life cycle on which the drug has its primary effect” value (B lymphocytes [2]) is reported as “early stage B lymphocyte proliferation/differentiation”, the “sensitivity of B cell subtypes to drug” value (B cell subtypes) is reported as “CD5 positive B cells are found to be more sensitive” and the “suppression of B lymphocyte's ability to respond to mitogen” value (B lymphocytes [3]; FIG. 1B) is reported as “suppress”. The “% Suppression” value (B lymphocytes [3]; PWM (1 μg/ml), BC5, 1 μg/ml of drug) was 59%, the “% Suppression” value (B lymphocytes [3]; PWM (1 μg/ml), BC5, 5 μg/ml of drug) was 47% and the “% Suppression” value (B lymphocytes [3]; PWM (1 μg/ml), BC6, 1 μg/ml of drug) was 11%. The “% Suppression” value (B lymphocytes [3]; PWM (1 μg/ml), BC6, 5 μg/ml of drug) was 40%, the “% Suppression” value (B lymphocytes [3]; PWM (1 μg/ml), BC7, 1 μg/ml of drug) was 16% and the “% Suppression” value (B lymphocytes [3]; PWM (1 μg/ml), BC7, 5 μg/ml of drug) was 65%. For the same compound, the “% Suppression” value (B lymphocytes [3]; SAC I (1/60,000), BC5, 1 μg/ml of drug) was 14%, the “% Suppression” value (B lymphocytes [3]; SAC I (1/60,000), BC5, 5 μg/ml of drug) was 5% and the “% Suppression” value (B lymphocytes [3]; SAC I (1/60,000), BC6, 1 μg/ml of drug) was 0%. The “% Suppression” value (B lymphocytes [3]; SAC I (1/60,000), BC6, 5 μg/ml of drug) was 49%, the “% Suppression” value (B lymphocytes [3]; SAC I (1/60,000), BC7, 1 μg/ml of drug) was 55% and the “% Suppression” value (B lymphocytes [3]; SAC I (1/60,000), BC7, 5 μg/ml of drug) was 73%. For the same compound, the “activity in arthritis model” value [4] was “active following onset of disease”, the “suppression of T lymphocyte's ability to respond to mitogen” value (T lymphocytes; FIG. 1A) was “suppress” and the “% Suppression” value (T lymphocytes; CON A (5 μg/ml), BC5, 5 μg/ml of drug) was 29%. For the same compound, the “% Suppression” value (T lymphocytes; CON A (5 μg/ml), BC6, 1 μg/ml of drug) was 4%, the “% Suppression” value (T lymphocytes; CON A (5 μg/ml), BC6, 5 μg/ml of drug) was 29% and the “% Suppression” value (T lymphocytes; CON A (5 μg/ml), BC7, 1 μg/ml of drug) was 16%. For the same compound, the “% Suppression” value (T lymphocytes; CON A (5 μg/ml), BC7, 5 μg/ml of drug) was 40%, the “% Suppression” value (T lymphocytes; CON A (5 μg/ml), leukocyte preparation BC5, 1 μg/ml of drug) was 6% and the “% Suppression” value (T lymphocytes; PHA-P (5 μg/ml), BC5, 1 μg/ml of drug) was 24%. For the same compound, the “% Suppression” value (T lymphocytes; PHA-P (5 μg/ml), BC5, 5 μg/ml of drug) was 32%, the “% Suppression” value (T lymphocytes; PHA-P (5 μg/ml), BC6, 1 μg/ml of drug) was 0% and the “% Suppression” value (T lymphocytes; PHA-P (5 μg/ml), BC6, 5 μg/ml of drug) was 15%. The “% Suppression” value (T lymphocytes; PHA-P (5 μg/ml), BC7, 1 μg/ml of drug) was 25%, the “% Suppression” value (T lymphocytes; PHA-P (5 μg/ml), BC7, 5 μg/ml of drug) was 50% and the “peak concentration of F-ara-ATP in the lymphocytes relative to the serum peak” value [5] was 10 fold. The “concentration at which effect on viable CD20 positive B lymphocytes becomes evident” value [6] was 0.5 µg/mL.
